Measurements reported in the supplement of paper PMC4862054.

Legend:
Assay in all cases: normalised viability (% of control), CellTiter-Blue; higher = more viable cells (about 100 = DMSO control)
Conditions in all cases: incubation time: 72 h
CAL-148 [1] = test system: CAL-148
Protocol: (§1)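 DSRT, CellTiter-Blue viability, 72 h incubation. Signal is normalised to DMSO and benzethonium chloride controls. Value is the normalised response at dose 6.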

CAL-85-1 [2] = test system: CAL-85-1
Protocol: as §1

HDQ-P1 [3] = test system: HDQ-P1
Protocol: as §1

DU-4475 [4] = test system: DU-4475
Protocol: as §1

CAL-51 [5] = test system: CAL-51
Protocol: as §1

MDA-MB-453 [6] = test system: MDA-MB-453
Protocol: as §1

CAL-148 [7] = test system: CAL-148; remark: listed apart in the source
Protocol: (§2)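 DSRT, CellTiter-Blue viability, 72 h incubation. Signal is normalised to DMSO and benzethonium chloride controls. Value is the normalised response at dose 8.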

CAL-85-1 [8] = test system: CAL-85-1; remark: listed apart in the source
Protocol: as §2

HDQ-P1 [9] = test system: HDQ-P1; remark: listed apart in the source
Protocol: as §2

DU-4475 [10] = test system: DU-4475; remark: listed apart in the source
Protocol: as §2

CAL-51 [11] = test system: CAL-51; remark: listed apart in the source
Protocol: as §2

MDA-MB-453 [12] = test system: MDA-MB-453; remark: listed apart in the source
Protocol: as §2

CAL-148 [13] = test system: CAL-148; remark: listed apart in the source
Protocol: (§3)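 DSRT, CellTiter-Blue viability, 72 h incubation. Signal is normalised to DMSO and benzethonium chloride controls. Value is the normalised response at dose 7.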

CAL-85-1 [14] = test system: CAL-85-1; remark: listed apart in the source
Protocol: as §3

HDQ-P1 [15] = test system: HDQ-P1; remark: listed apart in the source
Protocol: as §3

DU-4475 [16] = test system: DU-4475; remark: listed apart in the source
Protocol: as §3

CAL-51 [17] = test system: CAL-51; remark: listed apart in the source
Protocol: as §3

MDA-MB-453 [18] = test system: MDA-MB-453; remark: listed apart in the source
Protocol: as §3

SMILES | normalised viability (CAL-148 [1]) [%] | normalised viability (CAL-85-1 [2]) [%] | normalised viability (HDQ-P1 [3]) [%] | normalised viability (DU-4475 [4]) [%] | normalised viability (CAL-51 [5]) [%] | normalised viability (MDA-MB-453 [6]) [%] | normalised viability (CAL-148 [7]) [%] | normalised viability (CAL-85-1 [8]) [%] | normalised viability (HDQ-P1 [9]) [%] | normalised viability (DU-4475 [10]) [%] | normalised viability (CAL-51 [11]) [%] | normalised viability (MDA-MB-453 [12]) [%] | further results
C[C@@H]1C[C@H]2[C@@H]3CCC4=CC(=O)C=C[C@]4(C)[C@@]3(F)[C@@H](O)C[C@]2(C)[C@@]1(O)C(=O)CO [Dexamethasone] (300 nM) | 105 | 99.3 | 69.5 | 99 | 99.4 | 73.7 | – | – | – | – | – | – | –
C[C@@H]1C[C@H]2[C@@H]3CCC4=CC(=O)C=C[C@]4(C)[C@@]3(F)[C@@H](O)C[C@]2(C)[C@@]1(O)C(=O)CO [Dexamethasone] (3000 nM) | – | – | – | – | – | – | 93.3 | 115 | 112 | 100 | 106 | 78.2 | –
C[C@@H](CN1CC(=O)NC(=O)C1)N1CC(=O)NC(=O)C1 [Dexrazoxane] (300 nM) | 83.5 | 95.4 | 82.2 | 108 | 95 | 97.6 | – | – | – | – | – | – | –
C[C@@H](CN1CC(=O)NC(=O)C1)N1CC(=O)NC(=O)C1 [Dexrazoxane] (1000 nM) | – | – | – | – | – | – | – | – | – | – | – | – | normalised viability (CAL-148 [13]): 102%; normalised viability (CAL-85-1 [14]): 86.9%; normalised viability (HDQ-P1 [15]): 107%; normalised viability (DU-4475 [16]): 83.6%; normalised viability (CAL-51 [17]): 97.4%; normalised viability (MDA-MB-453 [18]): 97.8%
C[C@@H](CN1CC(=O)NC(=O)C1)N1CC(=O)NC(=O)C1 [Dexrazoxane] (3000 nM) | – | – | – | – | – | – | 96 | 104 | 98.1 | 92.8 | 83.9 | 87.5 | –
CC(C)C(=O)Nc1ccc([N+](=O)[O-])c(C(F)(F)F)c1 [Flutamide] (300 nM) | 104 | 98.3 | 93.6 | 113 | 105 | 108 | – | – | – | – | – | – | –
CC(C)C(=O)Nc1ccc([N+](=O)[O-])c(C(F)(F)F)c1 [Flutamide] (3000 nM) | – | – | – | – | – | – | 104 | 94.9 | 98.8 | 93.2 | 110 | 120 | –
COc1cc2c(Oc3ccc(NC(=O)C4(C(=O)Nc5ccc(F)cc5)CC4)cc3F)ccnc2cc1OCCCN1CCOCC1 [Foretinib] (30 nM) | 95.1 | 89.2 | 59.1 | 84.3 | 93.3 | 94.1 | – | – | – | – | – | – | –
NC(=O)NO [Hydroxyurea] (3000 nM) | 108 | 110 | 91.3 | 91.3 | 103 | 109 | – | – | – | – | – | – | –
